According to patent US8835389B2, “Use of calcitonin for the treatment of RA” (priority 2005, dated 2014):
No end group written: not given here.

Tests used:
[1] = in vivo
[2] = Water solubility of delivery agents
[3] = system: Collagen Induced Arthritis model (CIA-model) in lewis rats; assay: Collagen Induced Arthritis model (CIA-model), serum CTX-II; assay type: in vivo; conditions: day 21 after collagen injection, 50 mg/kg 5-CNAC+calcitonin 2 mg/kg twice daily, versus CIA-group
Text: Arthritis induced in rodents by the systemic administration of type II collagen (CII) is an experimental model with many resemblances to RA, and is widely used for studying the disease processes (reviewed in Wooley P H, Chapedelaine J M. Immunogenetics of collagen-induced arthritis. Crit Rev Immunol 1987; 8: 1-22; and Trentham D E. Collagen arthritis as a relevant model for rheumatoid arthritis. Arth Rheum 1982; 25: 9116).
Upon immunization with purified CII in complete Freund's adjuvant, genetically susceptible strains of rodents develop arthritis, which is characterized by cellular and humoral immune responses to CII. […]
Animals are monitored for signs of arthritis one week post immunization on a daily basis and a clinical scoring system is adopted wherein each limb is given a clinical score on the basis of visual signs of oedema and/or erythema as follows: 0=normal, 1=slight swelling and/or erythema at the base of the paw, 2=frank oedema and erythema involving the entire paw, 2·5=pronounced oedema and erythema leading to an incapacitated limb mobility, 3=ankylosis, as previously described in Malfait A M, Butler D M, Presky D H et al., Blockade of IL-12 during the induction of collagen-induced arthritis (CIA) markedly attenuates the severity of the arthritis. […]

O=C(O)CCCCCCCNC(=O)c1cc(Cl)ccc1O [5 CNAC, N-(5-chlorosalicyloyl)-8-aminocaprylic acid]
absorbed by the gastro-intestinal tract [1]: greater than 90%

O=C(O)CCCCCCCCCNC(=O)c1ccccc1O [SNAD, N-(10-[2-hydroxybenzoyl]amino)decanoic acid]
water solubility [2]: very water soluble

Calcitonin (CGNLSTCMLGTYTQDFNKFHTFPQTAIGVGAP; ends and bridges not checked; cysteine pairing not given here; UniProt P01258 85-116, looked up)
reduction of the increase in serum c-terminal telopeptide of type II collagen (serum CTX-II) [3]: 33%
